Assay results: ChEMBL document CHEMBL1949530, “Fatty acid amide hydrolase inhibitors. 3: tetra-substituted azetidine ureas with in vivo activity” (Bioorg Med Chem Lett, 2012)
In brackets after ≈: the same amount, converted by molar mass. Values belong to the compound of their own block, whether it stands above or below them.

Assays:
[1] = Drug metabolism in human liver microsomes after 10 mins; type: ADME, Microsome; conditions: read-out: Drug metabolism
[2] = target: T1, Fatty-acid amide hydrolase 1 (Homo sapiens, UniProt O00519); test: Inhibition of human FAAH expressed in CHO cells using 7-amino-4-methylcoumarine amide as substrate preincubated for 1 hr by fluorimetry; type: cell-based
T1 sequence (O00519 whole entry): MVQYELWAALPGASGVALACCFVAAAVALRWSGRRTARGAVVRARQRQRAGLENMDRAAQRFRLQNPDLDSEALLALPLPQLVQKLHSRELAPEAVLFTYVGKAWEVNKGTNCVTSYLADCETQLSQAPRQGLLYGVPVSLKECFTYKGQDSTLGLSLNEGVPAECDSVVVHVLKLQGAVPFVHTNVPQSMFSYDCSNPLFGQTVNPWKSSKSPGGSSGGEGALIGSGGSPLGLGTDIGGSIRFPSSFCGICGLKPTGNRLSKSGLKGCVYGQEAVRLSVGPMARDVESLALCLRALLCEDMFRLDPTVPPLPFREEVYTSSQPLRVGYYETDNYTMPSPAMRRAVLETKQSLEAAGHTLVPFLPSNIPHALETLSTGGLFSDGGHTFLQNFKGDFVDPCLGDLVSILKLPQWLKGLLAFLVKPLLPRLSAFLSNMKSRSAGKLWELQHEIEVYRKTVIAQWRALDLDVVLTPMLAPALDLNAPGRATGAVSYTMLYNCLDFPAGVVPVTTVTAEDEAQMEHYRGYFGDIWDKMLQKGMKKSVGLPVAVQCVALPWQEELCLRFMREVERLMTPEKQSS

[3] = Drug metabolism in rat liver microsomes after 10 mins; type: ADME, Microsome; conditions: read-out: Drug metabolism
[4] = target: T2, Fatty-acid amide hydrolase 1 (Rattus norvegicus, UniProt P97612); test: Inhibition of rat FAAH using 7-amino-4-methylcoumarine amide as substrate preincubated for 1 hr by fluorimetry
T2 sequence (P97612 whole entry): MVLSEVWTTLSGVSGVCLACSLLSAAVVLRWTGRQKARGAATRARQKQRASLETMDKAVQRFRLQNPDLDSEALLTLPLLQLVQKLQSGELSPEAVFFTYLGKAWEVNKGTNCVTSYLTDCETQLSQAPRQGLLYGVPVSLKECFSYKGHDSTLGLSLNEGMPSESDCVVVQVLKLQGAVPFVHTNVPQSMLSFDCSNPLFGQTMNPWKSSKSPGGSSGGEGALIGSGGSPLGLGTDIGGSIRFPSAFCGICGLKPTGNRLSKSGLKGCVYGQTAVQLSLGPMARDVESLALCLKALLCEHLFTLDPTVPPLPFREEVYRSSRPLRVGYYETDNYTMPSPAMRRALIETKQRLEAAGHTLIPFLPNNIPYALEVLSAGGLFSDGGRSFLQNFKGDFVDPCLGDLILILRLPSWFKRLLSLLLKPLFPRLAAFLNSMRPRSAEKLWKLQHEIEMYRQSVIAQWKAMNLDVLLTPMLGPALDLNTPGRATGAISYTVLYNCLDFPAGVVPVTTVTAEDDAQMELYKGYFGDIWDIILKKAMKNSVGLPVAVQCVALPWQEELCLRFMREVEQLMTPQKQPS

Cannabinoid receptor 2 = Cannabinoid receptor 2 (Homo sapiens, UniProt P34972); test: Displacement of [3H]CP55940 from human CB2 receptor
Cannabinoid receptor 1 = Cannabinoid receptor 1 (Homo sapiens, UniProt P21554); test: Displacement of [3H]SR141716A from human CB1 receptor
Rattus norvegicus [5] = test: Inhibition of FAAH in iv dosed rat assessed as AEA level in brain administered 30 mins prior to anandamide loading measured after 30 mins; type: functional, organism-based
Rattus norvegicus [6] = test: Inhibition of FAAH in rat assessed as AEA level in brain at 1 mg/kg, iv administered 30 mins prior to anandamide loading measured after 30 mins relative to vehicle treated control; type: functional
Brain [7] = test: Drug uptake in rat brain at 1 mg/kg, iv; type: ADME, organism-based; parameters: dose 1 mg/kg, route intravenous; conditions: in vivo
Plasma [8] = test: Plasma concentration in rat at 1 mg/kg, iv; type: ADME, organism-based; parameters: dose 1 mg/kg, route intravenous; conditions: in vivo
[9] = Oral bioavailability in rat at 4 mg/kg; type: ADME, organism-based; conditions: in vivo
[10] = Apparent permeability from apical to basolateral side of human Caco2 cells; type: ADME, cell-based; conditions: Caco-2
Brain [11] = test: Drug uptake in rat brain at 0.3 mg/kg, iv; type: ADME, organism-based; parameters: dose 0.3 mg/kg, route intravenous; conditions: in vivo
Plasma [12] = test: Plasma concentration in rat at 3 mg/kg, iv; type: ADME, organism-based; parameters: dose 3 mg/kg, route intravenous; conditions: in vivo
Monoglyceride lipase = target: T3, Monoglyceride lipase (Homo sapiens, UniProt Q99685); test: Inhibition of human recombinant N-His6-tagged MAGL expressed in Escherichia coli using 7-Hydroxycoumarinyl arachidonate as substrate by fluorimetry
T3 sequence (Q99685 whole entry): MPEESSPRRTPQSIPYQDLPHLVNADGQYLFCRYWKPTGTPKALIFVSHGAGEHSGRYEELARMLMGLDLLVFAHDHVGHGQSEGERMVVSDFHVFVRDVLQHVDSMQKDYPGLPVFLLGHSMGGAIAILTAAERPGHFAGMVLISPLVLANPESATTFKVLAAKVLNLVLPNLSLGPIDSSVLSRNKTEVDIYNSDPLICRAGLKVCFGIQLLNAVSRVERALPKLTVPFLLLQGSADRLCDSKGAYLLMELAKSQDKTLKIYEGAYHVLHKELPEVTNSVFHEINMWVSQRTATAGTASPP

Cytochrome P450 2D6 = Cytochrome P450 2D6 (Homo sapiens, UniProt P10635); test: Inhibition of CYP2D6; type: ADME
[13] = Aqueous solubility of the compound at pH 6.8; type: physicochemical; conditions: aqueous medium
Cytochrome P450 1A2 = target: T4, Cytochrome P450 1A2 (Homo sapiens, UniProt P05177); test: Inhibition of CYP1A2; type: ADME
T4 sequence (P05177 whole entry): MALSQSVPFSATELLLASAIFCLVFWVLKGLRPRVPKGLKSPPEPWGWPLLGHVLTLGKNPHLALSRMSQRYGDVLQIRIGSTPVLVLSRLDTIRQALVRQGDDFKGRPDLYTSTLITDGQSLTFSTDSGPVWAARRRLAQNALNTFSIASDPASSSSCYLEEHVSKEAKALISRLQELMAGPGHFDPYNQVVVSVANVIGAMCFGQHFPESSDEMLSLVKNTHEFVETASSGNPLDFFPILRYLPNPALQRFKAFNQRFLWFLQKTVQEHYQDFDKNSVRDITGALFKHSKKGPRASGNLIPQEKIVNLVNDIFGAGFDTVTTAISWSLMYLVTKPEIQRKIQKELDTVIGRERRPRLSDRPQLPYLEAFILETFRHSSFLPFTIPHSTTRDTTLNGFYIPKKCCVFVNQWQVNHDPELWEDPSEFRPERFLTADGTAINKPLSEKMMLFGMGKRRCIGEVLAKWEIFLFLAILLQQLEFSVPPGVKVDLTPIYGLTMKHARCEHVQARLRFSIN

[14] = Aqueous solubility of the compound at pH 1; type: physicochemical; conditions: aqueous medium
Plasma [15] = test: Plasma concentration in rat at 0.3 mg/kg, iv; type: ADME, organism-based; parameters: dose 0.3 mg/kg, route intravenous; conditions: in vivo
Plasma [16] = test: Ratio of plasma concentration in rat hepatic portal vein to plasma concentration in rat vena cava at 4 mg/kg, po; type: ADME, organism-based; parameters: dose 4 mg/kg, route oral; conditions: in vivo
Rattus norvegicus [17] = test: Inhibition of FAAH in rat assessed as AEA level in brain at 3 mg/kg, iv administered 30 mins prior to anandamide loading measured after 30 mins relative to vehicle treated control; type: functional
Cytochrome P450 3A4 = Cytochrome P450 3A4 (Homo sapiens, UniProt P08684); test: Inhibition of CYP3A4; type: ADME
Brain [18] = test: Drug uptake in rat brain at 3 mg/kg, iv; type: ADME, organism-based; parameters: dose 3 mg/kg, route intravenous; conditions: in vivo
[19] = Apparent permeability from basolateral to apical side of human Caco2 cells; type: ADME, cell-based; conditions: Caco-2
[20] = Plasma clearance in rat at 2 mg/kg, iv; type: ADME, organism-based; parameters: dose 2 mg/kg, route intravenous
[21] = Volume of distribution in rat at 2 mg/kg, iv; type: ADME, organism-based; parameters: dose 2 mg/kg, route intravenous; conditions: in vivo
Rattus norvegicus [22] = test: Inhibition of FAAH in rat assessed as AEA level in brain at 0.3 mg/kg, iv administered 30 mins prior to anandamide loading measured after 30 mins relative to vehicle treated control; type: functional
Cytochrome P450 2C19 = Cytochrome P450 2C19 (Homo sapiens, UniProt P33261); test: Inhibition of CYP2C19; type: ADME
[23] = target: Voltage-gated inwardly rectifying potassium channel KCNH2 (Homo sapiens, UniProt Q12809); test: Inhibition of human ERG
Cytochrome P450 2C9 = Cytochrome P450 2C9 (Homo sapiens, UniProt P11712); test: Inhibition of CYP2C9; type: ADME
[24] = Cmax in rat at 4 mg/kg, po; type: ADME, organism-based; parameters: dose 4 mg/kg, route oral; conditions: in vivo

Chain of Cannabinoid receptor 1 (P21554 whole entry): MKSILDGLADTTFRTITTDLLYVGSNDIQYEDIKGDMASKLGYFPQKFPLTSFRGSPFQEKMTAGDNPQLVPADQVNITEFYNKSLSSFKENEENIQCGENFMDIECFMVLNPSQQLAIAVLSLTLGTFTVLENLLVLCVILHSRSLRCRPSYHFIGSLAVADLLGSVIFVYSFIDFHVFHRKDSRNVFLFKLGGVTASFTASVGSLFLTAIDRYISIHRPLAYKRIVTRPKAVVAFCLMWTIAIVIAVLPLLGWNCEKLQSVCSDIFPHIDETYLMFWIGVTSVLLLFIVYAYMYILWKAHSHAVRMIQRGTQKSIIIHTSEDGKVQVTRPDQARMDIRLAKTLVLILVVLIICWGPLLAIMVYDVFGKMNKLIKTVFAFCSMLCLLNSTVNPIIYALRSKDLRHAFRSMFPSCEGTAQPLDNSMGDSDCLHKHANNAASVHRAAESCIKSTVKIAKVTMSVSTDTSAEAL
Chain of Cannabinoid receptor 2 (P34972 whole entry): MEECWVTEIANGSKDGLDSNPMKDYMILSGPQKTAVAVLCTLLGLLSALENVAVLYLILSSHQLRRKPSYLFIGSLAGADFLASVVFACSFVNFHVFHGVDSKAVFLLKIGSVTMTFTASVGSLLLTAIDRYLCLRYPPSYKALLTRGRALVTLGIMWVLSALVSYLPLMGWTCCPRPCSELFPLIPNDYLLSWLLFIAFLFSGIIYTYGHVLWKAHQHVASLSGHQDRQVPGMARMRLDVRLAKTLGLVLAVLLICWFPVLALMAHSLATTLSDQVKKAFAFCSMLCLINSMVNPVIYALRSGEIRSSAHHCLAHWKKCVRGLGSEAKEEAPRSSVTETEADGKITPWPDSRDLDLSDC
Chain of Cytochrome P450 2D6 (P10635 whole entry): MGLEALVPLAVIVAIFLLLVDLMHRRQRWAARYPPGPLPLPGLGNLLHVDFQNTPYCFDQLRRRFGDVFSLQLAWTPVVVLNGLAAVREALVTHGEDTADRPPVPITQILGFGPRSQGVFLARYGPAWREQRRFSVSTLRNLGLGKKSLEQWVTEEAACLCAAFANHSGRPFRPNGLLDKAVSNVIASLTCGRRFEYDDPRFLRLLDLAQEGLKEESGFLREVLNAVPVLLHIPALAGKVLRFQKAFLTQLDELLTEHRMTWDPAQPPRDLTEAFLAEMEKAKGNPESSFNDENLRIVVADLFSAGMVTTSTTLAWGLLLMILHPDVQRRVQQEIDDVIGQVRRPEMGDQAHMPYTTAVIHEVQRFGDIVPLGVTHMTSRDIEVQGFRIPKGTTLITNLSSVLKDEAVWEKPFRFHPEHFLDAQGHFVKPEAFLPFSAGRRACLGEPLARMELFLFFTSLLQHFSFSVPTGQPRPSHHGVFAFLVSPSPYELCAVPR
Chain of Voltage-gated inwardly rectifying potassium channel KCNH2 (Q12809 whole entry): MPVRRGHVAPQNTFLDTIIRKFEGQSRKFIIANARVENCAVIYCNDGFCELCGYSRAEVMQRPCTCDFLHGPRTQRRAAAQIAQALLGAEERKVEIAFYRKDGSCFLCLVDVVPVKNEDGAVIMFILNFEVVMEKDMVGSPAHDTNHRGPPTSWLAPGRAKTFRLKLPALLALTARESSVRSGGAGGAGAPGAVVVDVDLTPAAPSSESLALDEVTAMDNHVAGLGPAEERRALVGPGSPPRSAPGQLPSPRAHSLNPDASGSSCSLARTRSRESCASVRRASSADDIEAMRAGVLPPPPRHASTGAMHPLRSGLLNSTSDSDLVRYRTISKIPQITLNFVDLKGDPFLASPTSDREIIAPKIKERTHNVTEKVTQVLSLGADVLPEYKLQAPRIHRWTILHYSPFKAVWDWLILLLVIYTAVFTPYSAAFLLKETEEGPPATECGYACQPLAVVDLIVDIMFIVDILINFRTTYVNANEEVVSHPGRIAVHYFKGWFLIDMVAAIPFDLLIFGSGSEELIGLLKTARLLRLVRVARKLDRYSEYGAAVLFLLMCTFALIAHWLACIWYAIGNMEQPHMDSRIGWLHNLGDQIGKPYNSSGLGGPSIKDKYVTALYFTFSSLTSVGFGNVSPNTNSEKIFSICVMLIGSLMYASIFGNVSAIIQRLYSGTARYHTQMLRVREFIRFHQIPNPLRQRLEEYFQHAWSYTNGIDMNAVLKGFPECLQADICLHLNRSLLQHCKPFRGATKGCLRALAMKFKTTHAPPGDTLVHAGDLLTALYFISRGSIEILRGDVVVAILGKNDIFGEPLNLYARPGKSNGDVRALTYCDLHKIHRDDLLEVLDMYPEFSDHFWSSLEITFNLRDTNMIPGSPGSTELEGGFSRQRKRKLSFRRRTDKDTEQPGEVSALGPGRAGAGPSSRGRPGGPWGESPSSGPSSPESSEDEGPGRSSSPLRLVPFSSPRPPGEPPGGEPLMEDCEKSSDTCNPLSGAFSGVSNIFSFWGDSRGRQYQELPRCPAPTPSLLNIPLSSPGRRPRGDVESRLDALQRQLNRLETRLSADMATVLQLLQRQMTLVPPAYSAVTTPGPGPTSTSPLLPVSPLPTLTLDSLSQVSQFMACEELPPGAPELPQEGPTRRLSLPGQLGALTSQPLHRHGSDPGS
Chain of Cytochrome P450 3A4 (P08684 whole entry): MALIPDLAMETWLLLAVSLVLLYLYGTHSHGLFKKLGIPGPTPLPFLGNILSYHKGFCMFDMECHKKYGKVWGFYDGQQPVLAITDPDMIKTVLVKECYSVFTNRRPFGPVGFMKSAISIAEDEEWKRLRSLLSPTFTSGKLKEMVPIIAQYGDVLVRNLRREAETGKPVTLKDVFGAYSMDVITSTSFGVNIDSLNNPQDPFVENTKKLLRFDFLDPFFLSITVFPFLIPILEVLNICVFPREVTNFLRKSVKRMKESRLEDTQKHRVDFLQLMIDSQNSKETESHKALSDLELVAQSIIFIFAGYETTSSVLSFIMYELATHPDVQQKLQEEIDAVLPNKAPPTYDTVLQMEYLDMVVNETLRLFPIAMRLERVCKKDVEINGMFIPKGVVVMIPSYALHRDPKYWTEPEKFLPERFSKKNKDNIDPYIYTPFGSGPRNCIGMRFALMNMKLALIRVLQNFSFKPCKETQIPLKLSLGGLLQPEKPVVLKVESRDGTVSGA
Chain of Cytochrome P450 2C19 (P33261 whole entry): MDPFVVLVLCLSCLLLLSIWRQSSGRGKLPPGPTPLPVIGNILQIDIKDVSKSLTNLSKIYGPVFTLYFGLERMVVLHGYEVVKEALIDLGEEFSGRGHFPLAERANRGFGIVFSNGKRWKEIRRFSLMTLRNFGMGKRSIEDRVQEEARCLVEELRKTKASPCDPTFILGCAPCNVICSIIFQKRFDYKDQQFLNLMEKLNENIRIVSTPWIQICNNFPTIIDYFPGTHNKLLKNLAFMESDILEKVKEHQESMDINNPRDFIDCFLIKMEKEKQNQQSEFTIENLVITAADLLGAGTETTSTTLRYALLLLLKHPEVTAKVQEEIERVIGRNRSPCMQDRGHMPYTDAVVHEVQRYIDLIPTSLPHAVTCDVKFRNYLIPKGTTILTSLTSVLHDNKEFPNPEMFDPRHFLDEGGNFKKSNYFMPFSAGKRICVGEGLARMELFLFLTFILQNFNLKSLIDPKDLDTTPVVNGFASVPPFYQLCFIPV
Chain of Cytochrome P450 2C9 (P11712 whole entry): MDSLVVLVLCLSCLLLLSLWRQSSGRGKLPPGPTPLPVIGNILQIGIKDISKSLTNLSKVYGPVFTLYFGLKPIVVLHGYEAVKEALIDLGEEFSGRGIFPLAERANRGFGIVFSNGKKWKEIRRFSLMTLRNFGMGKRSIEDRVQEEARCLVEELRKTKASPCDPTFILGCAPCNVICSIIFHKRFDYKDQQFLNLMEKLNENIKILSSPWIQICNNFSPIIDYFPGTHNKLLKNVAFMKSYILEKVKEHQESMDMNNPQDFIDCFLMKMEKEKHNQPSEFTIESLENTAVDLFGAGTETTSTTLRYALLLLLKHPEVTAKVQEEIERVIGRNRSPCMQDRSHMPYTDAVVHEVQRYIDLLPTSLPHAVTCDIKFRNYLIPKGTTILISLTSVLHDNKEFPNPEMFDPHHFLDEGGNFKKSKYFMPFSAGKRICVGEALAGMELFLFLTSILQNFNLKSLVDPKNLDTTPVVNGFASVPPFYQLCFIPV

- metabolised at 10 min [1]: 92%
- IC50 [2]: 40.8 µM
- metabolised at 10 min [3]: 95%
- IC50 [4]: 4.53 µM
- Ki (Cannabinoid receptor 2): 490 nM
- Ki (Cannabinoid receptor 1): 1.5 nM
SMILES: CN(Cc1ccccc1)C(=O)N1CC(O[C@H](c2ccc(Cl)cc2)c2cccnc2Cl)C1

- metabolised at 10 min [1]: 94%
- IC50 [2]: 0.887 µM
- metabolised at 10 min [3]: 98%
- IC50 [4]: 0.094 µM
- Ki (Cannabinoid receptor 2): 4020 nM
- Ki (Cannabinoid receptor 1): 249 nM
SMILES: CN(Cc1ccccc1)C(=O)N1CC(O[C@@H](c2ccc(Cl)cc2)c2cccnc2Cl)C1

- Drug uptake (Brain [7]): 79 ng/g
- Cp (Plasma [8]): 72 ng/g
- metabolised at 10 min [1]: 92%
- bioavailability [9]: 2.4%
- Papp A→B [10]: 31.7 ×10⁻⁶ cm/s
- Drug uptake (Brain [11]): 18 ng/g
- Cp (Plasma [12]): 109 ng/g
- IC50 (Monoglyceride lipase): 22.3 µM
- IC50 (Cytochrome P450 2D6): > 10 µM
- solubility [13]: 175 µM (≈ 73.6 µg/mL)
- IC50 (Cytochrome P450 1A2): > 10 µM
- solubility [14]: 158 µM (≈ 66.4 µg/mL)
- Cp (Plasma [15]): 8.5 ng/g
- IC50 [2]: 0.973 µM
- Ratio (Plasma [16]): 17
- IC50 (Cytochrome P450 3A4): > 10 µM
- Drug uptake (Brain [18]): 137 ng/g
- Papp B→A [19]: 27.5 ×10⁻⁶ cm/s
- clearance [20]: 47 mL/min/kg
- Vd [21]: 3.3 L/kg
- metabolised at 10 min [3]: 98%
- IC50 (Cytochrome P450 2C19): 2050 nM
- IC50 [4]: 0.112 µM
- IC50 (Cytochrome P450 2C9): > 10 µM
- Cmax [24]: 5 ng/mL
SMILES: O=C(N1CCCCC1)N1CC(O[C@@H](c2ccc(Cl)cc2)c2cccnc2Cl)C1
- inhibition (Rattus norvegicus [5]): Dose-dependent effect
- fold change (FC) (Rattus norvegicus [6]): 3.3
- fold change (FC) (Rattus norvegicus [17]): 5.1
- fold change (FC) (Rattus norvegicus [22]): 1.7
- IC50 [23]: 30.8 µM

- metabolised at 10 min [1]: 78%
- IC50 [2]: > 500 µM
- metabolised at 10 min [3]: > 99%
- IC50 [4]: 42 µM
- Ki (Cannabinoid receptor 1): 7 nM
SMILES: O=C(N1CCCCC1)N1CC(O[C@H](c2ccc(Cl)cc2)c2cccnc2Cl)C1

- metabolised at 10 min [1]: 20%
- IC50 [2]: > 500 µM
- metabolised at 10 min [3]: 45%
- IC50 [4]: 11.5 µM
SMILES: O=C(NCc1ccccc1)N1CC(OC(c2ccc(Cl)cc2)c2cccnc2Cl)C1 (racemic)

- metabolised at 10 min [1]: 57%
- IC50 [2]: > 500 µM
- metabolised at 10 min [3]: 83%
- IC50 [4]: > 500 µM
SMILES: O=C(N(CCO)Cc1ccccc1)N1CC(OC(c2ccc(Cl)cc2)c2cccnc2Cl)C1 (racemic)

- metabolised at 10 min [1]: 17%
- IC50 [2]: 24.7 µM
- metabolised at 10 min [3]: 45%
- IC50 [4]: 3.99 µM
SMILES: O=C(N1Cc2ccccc2C1)N1CC(OC(c2ccc(Cl)cc2)c2cccnc2Cl)C1 (racemic)

- metabolised at 10 min [1]: 75%
- IC50 [2]: 6.82 µM
- metabolised at 10 min [3]: 82%
- IC50 [4]: 0.531 µM
SMILES: O=C(N1CCc2ccccc2C1)N1CC(OC(c2ccc(Cl)cc2)c2cccnc2Cl)C1 (racemic)
